Assay results: paper PMC9259545, “Impact of poly-arginine peptides R18D and R18 on alteplase and tenecteplase thrombolysis in vitro, and neuroprotective stability to proteolysis” (Journal of Thrombosis and Thrombolysis, 2022)
No end group written: not given here.

What was measured:
[1] = target: T1, TNK (Homo sapiens, UniProt P00750, H332A/K331A/N152Q/R333A/R334A/T138N); test: Halo clot thrombolysis assay, TNK thrombolysis of whole blood clots; assay type: biochemical; settings: concurrent study, 0.5-16 µM peptide, TNK 5 nM, 27.5% human plasma
T1 construct: purchased Boehringer Ingelheim 50 mg vial
Description: (§1) We utilised a high throughput 96-well plate thrombolysis assay (“halo clot assay”) based on the procedure developed by Bonnard et al.. To reduce assay components the halo thrombus formation procedure was modified by replacing the original thrombotic mixture consisting of recombinant tissue factor and synthetic phospholipids reconstituted in 30 mM calcium, with thrombin, and reducing the pro-thrombotic volume (i.e., thrombin) from 5 to 3 µL and blood volume from 25 to 12 µL. Another modification to simplify clot formation consisted of adding the thrombin (3 µL; 500 nM in saline) to one side of the well and 12 µL of blood to the opposite side of well, before using a heat stretched Pasteur pipette with sealed end to mix the two liquids together using 4 to 5 circular motions around the edge of the well (halo clot). The original methodology involved adding the 5 μL of the clotting mixture to the edge of the well, and then using a micropipette to slowly release the 25 μL of blood to the edge of the well while at the same time maintaining a circular motion. Plates were incubated in a humidified 37 °C incubator for 1 h before use in the thrombolysis assay.
(§2) The thrombolysis assay involved adding 30 µL of Tris buffer (50 mM Tris–HCl, 100 mM NaCl, pH 7.4) with or without peptide followed by 55 µL Tris buffer containing tPA or TNK (5 nM final concentration) and 50% human plasma (final plasma concentration during thrombolysis 27.5%). The final concentration of peptide during thrombolysis ranged from 0.25 to 16 µM (note: an intravenous dose of R18D at 350 nmol/kg, which is likely to be neuroprotective achieves a Cmax of 0.7–0.9 µM in healthy male and female rats; unpublished observation). […] Following the addition of tPA or TNK into the wells, clot lysis was monitored over a 1-h period at 37 °C using a plate reader (Cytation5, BioTek, USA) by measuring absorbance at 510 nm every 1 min immediately after orbital shaking (205 rpm for 5 s). Controls consisted of wells with no thrombin (100% clot lysis; L100%) and wells with no tPA or TNK (0% clot lysis; L0%). At the 1-h time point, the percentage of thrombolysis (%T) in tPA or TNK treated samples (LTX) was calculated by transforming absorbance values based on the formula: % T = (LTX) − (L0%)/(L100%) − (L0%) × 100. In addition, during the 1-h period of clot lysis lag time and maximal activity (also known as maximum velocity or Vmax) of the thrombolysis reaction were calculated. The lag time is defined as the time interval between the first absorbance reading (time = 0) and the line of maximum slope of the thrombolysis reaction. The maximal activity is calculated from the maximum slope over the time course of the assay and reflects the capacity of an enzyme to catalyse a reaction (i.e., thrombolysis), with higher values representing higher catalytic activity (i.e., tPA/TNK induced plasmin thrombolysis).
(§3) For each thrombolysis assay, replicates for control wells (L0% and L100%) and tPA or TNK only treated wells consisted of n = 4–8. Replicates for tPA or TNK and peptide treated wells consisted of n = 4. For data analysis and graphical representations of the results, data from three independent thrombolytic assays were pooled. Studies consisted of R18D, R18 and NA-1 examined at the 0.5, 1, 2, 4, 8 or 16 µM concentrations performed concurrently on the same 96-well plate, in respective order. In addition, since R18D is known to be resistant to plasmin degradation and appeared to have the most impact on tPA or TNK thrombolysis, a separate set of three independent assays were performed for this peptide alone at concentrations of 0.25, 0.5, 1, 2, 4, 8 or 16 µM. Furthermore, the second dose study with R18D provided the opportunity to include a lower concentration (0.25 µM) of the peptide and to provide comparative data when only one peptide was examined in the thrombolysis assay per 96-well plate as opposed to examining the three peptides concurrently on the same plate. […]

[2] = tested on: tPA or TNK; assay type: biochemical, human
Description: as §1, §2
For each thrombolysis assay, replicates for control wells (L0% and L100%) and tPA or TNK only treated wells consisted of n = 4–8. Replicates for tPA or TNK and peptide treated wells consisted of n = 4. For data analysis and graphical representations of the results, data from three independent thrombolytic assays were pooled. Studies consisted of R18D, R18 and NA-1 examined at the 0.5, 1, 2, 4, 8 or 16 µM concentrations performed concurrently on the same 96-well plate, in respective order. […]

[3] = tested on: tPA or TNK; settings: cited from earlier work
From the text: Given the potential future application of the R18D, R18 and NA-1 peptides as ischaemic stroke neurotherapeutics, it is important to establish if they interfere with current and future standard of care treatments, namely alteplase (tPA; recombinant tissue plasminogen activator) and tenecteplase (TNK; a modified version of tPA) thrombolysis, which are routinely administered prior to thrombectomy. Similarly, it is also important to determine whether tPA or TNK may cause proteolytic degradation of the peptides directly or through the activation of plasminogen to plasmin, thereby reducing their pot ...

[4] = tested on: patients undergoing thrombectomy; settings: ESCAPE-NA-1 trial, subgroup analysis; cited from earlier work
From the text: The cationic arginine-rich peptides (CARPs) poly-arginine-18 (R18; 18-mer of L-enantiomer arginine; net charge + 18), its D-enantiomer (R18D) and NA-1 (also known as nerinetide or TAT-NR2B9c; net charge + 7) represent emerging neuroprotective therapies for the acute treatment of ischaemic stroke, especially prior to thrombolysis and endovascular thrombectomy.

[5] = target: T2, tPA (Homo sapiens, UniProt P00750); test: Halo clot thrombolysis assay, tPA thrombolysis of whole blood clots; assay type: biochemical; settings: tPA 5 nM, 27.5% human plasma; for Increase in tPA lag time / Increase in tPA thrombolysis maximal activity: concurrent study, 37 °C
T2 construct: purchased Boehringer Ingelheim, Germany 10 mg vial
Description: as §1, §2, §3

[6] = tested on: Rat primary cortical cultures; parameters: method as in PMID 25669902; settings: cited from earlier work
Description: To assess peptide proteolytic stability, R18 and R18D neuroprotective efficacy after incubation with tPA, TNK or trypsin was examined in the glutamic acid excitotoxicity model. Peptides were added to culture wells (96-well plate format) 5 min prior to glutamic acid exposure by removing media and adding 50 µL of media containing R18 or R18D at a 2 µM concentration. To induce excitotoxicity, 50 µL of Minimal Essential Media (Life Technologies)/2% B27 (MEM/B27) containing glutamic acid (200 µM: final concentration 100 µM; L-glutamic acid. L-glutamic acid was prepared as a 10,000 µM stock in water ...

T2 sequence (P00750 36-562): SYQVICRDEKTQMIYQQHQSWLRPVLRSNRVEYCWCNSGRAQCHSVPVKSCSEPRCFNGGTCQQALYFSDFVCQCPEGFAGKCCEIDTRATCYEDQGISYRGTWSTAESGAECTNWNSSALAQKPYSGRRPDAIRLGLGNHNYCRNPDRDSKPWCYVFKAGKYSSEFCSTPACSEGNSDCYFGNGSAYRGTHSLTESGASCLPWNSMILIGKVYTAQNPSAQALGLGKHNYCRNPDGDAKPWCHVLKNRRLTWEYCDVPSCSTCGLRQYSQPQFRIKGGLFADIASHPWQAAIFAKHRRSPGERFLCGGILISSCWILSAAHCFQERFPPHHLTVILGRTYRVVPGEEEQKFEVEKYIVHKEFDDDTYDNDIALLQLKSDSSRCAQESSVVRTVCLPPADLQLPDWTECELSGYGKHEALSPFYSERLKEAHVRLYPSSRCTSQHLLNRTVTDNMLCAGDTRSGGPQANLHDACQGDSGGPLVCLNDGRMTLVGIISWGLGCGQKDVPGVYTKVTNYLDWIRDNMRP
T1 sequence (P00750 36-562 T138N/N152Q/K331A/H332A/R333A/R334A): as the sequence (P00750 36-562) above, with T103N, N117Q, K296A, H297A, R298A, R299A counted along it

YGRKKRRQRRRKLSSIESDV [NA-1, reference compound]
Effect on TNK lag time vs TNK control [1]: did not significantly increase TNK lag time | Effect on TNK thrombolysis maximal activity vs TNK control [1]: did not significantly impact TNK thrombolysis maximal activity | Effect on percentage TNK thrombolysis at 1 h vs TNK control ([1]; 37 °C, 1 h): did not significantly inhibit TNK thrombolysis | Increase in lag time (time to the commencement of thrombolysis) ([2]; range over peptide concentrations 0.25-16 µM and both thrombolytics, 1-h assay): 0 to 7.16 min | Effect on maximal activity of the thrombolysis reaction ([2]; summary in abstract): appeared to increase the maximal activity | Interference with the thrombolytic activity of tPA or TNK [3]: does not interfere | Outcome of patients who received NA-1 but not alteplase compared with patients who received both NA-1 and alteplase [4]: significantly better functional outcomes, reduced mortality and reduced infarct volume | Increase in tPA lag time ([5]; peptide 1 µM): 5.4 min | Increase in tPA lag time ([5]; peptide 2 µM): 7.16 min | Increase in tPA thrombolysis maximal activity ([5]; peptide 2 µM): 40.68% | Increase in tPA thrombolysis maximal activity ([5]; peptide 4 µM): 45.1% | Increase in tPA thrombolysis maximal activity ([5]; peptide 8 µM): 58.65% | Increase in tPA thrombolysis maximal activity ([5]; peptide 16 µM): 45.65% | Effect on percentage tPA thrombolysis at 1 h vs tPA control ([5]; three peptides concurrently on the same plate, 0.5-16 µM peptide, Tris pH 7.4, 37 °C, 1 h, absorbance 510 nm, three independent assays pooled, n = 4, Dunnett's test): did not significantly inhibit thrombolysis | Neuroprotection in the glutamic acid excitotoxicity model [6]: no to little neuroprotection
